Experimental data taken from US11234964B2, “Use of melatonin for the treatment of tumors” (UNIVERSIDAD DE GRANADA, priority 2017, dated 2022).
“Also recorded” adds a separate entry of the source.

Assays:
SCC-9 cells = assay: Mitochondrial function and free radicals in melatonin-resistant cells; assay type: cell-based
From the text: The relationship between the mitochondrial changes caused by melatonin and the cell death induced by this molecule in these tumor cells was studied. Melatonin increases the number of mitochondria as well as the number of cristae, DNA, and mitochondrial mass. The result is an increase in respiratory chain complexes, and accordingly an increase in oxygen consumption, which is related to an increase in free radicals and oxidative stress reflected by an increase in the GSSG/GSH ratio. However, the antioxidant capacity is not modified. The activity and the expression of antioxidant enzymes such as GPx and the GRd is not modified either. […] To carry out the assays, CAL-27 and SCC9 cells have been used as typical example of head and neck squamous cell carcinoma (HNSCC) cancer cells.

[1] = system: CAL-27 and SCC9 cells xenografts; assay: Tumor volume in xenografted mice (photographs, NMR analysis); assay type: in vivo, athymic nude mice (nu/nu); details: for tumor volume: intratumoral injection
Experimental: (§1) For the in vivo assays, athymic nude mice (nu/nu) (Janvier, Pays de la Loire, France) of about 5-6 weeks of age (18-20 g) were used. The animals were held in the animal housing unit of the Biomedical Research Center of University of Granada (CIBM) in sterile conditions and under controlled photoperiod (12:12 h) and temperature (22±1° C.) environments, with ad libitum water and laboratory diet. The handling and transplant of the animals was carried out in a laminar flow biosafety cabinet. The animals were anesthetized with an i.p. injection of ketamine (80 mg/kg) and xylazine (4 mg/kg).
(§2) Xenografts were performed with CAL-27 and SCC9 cells (the latter being resistant to melatonin). Cells enzymatically separated with trypsin-EDTA are resuspended at a concentration of 4×10^6 cells per mouse in PBS. Cell viability is determined by means of the Trypan Blue test. The cells are injected into the left flank of the mouse, with a volume of 200 μL of cell suspension being injected into each mouse with the help of a 1 mL syringe with a needle measuring 16×0.5 mm.
The body weight and tumor size are measured and recorded two or three times a week throughout the experiment. The tumor volume is calculated using the following formula: ½ (L×W2) (mm^3), where L is the length and W is the width. After the appearance of a tumoral node (100 mm^3), the mice carrying the tumors are randomly assigned to several groups.
The experimental groups were as follows: • 1. Mouse with untreated tumor • 2. Mouse with tumor treated with subcutaneously administered melatonin (s.c.) at a dose of 300 mg/kg (4.5% w/v melatonin solution). The concentration of melatonin in the tumor when melatonin is administered through this route is 10 ng/mg of proteins. • 3. Mouse with tumor treated with administered intratumorally melatonin (60 μl of a 0.1% w/v melatonin solution) fora tumor volume of 100 mm^3. 0.1% of melatonin is the minimum effective dose (in vitro) for inducing 80% cell death. When 0.1% of melatonin is administered, a concentration of 450 ng/mg of proteins is reached in the tumor. • 4. Mouse with tumor treated with intratumorally melatonin administered (60 μl of a 4.5% melatonin solution) for a tumor volume of 100 mm^3.
Therefore, once the tumor reached the indicated volume of 100 mm^3, it is treated with melatonin daily for 21 days according to the following protocol: • A. Injected s.c. (300 mg/kg which is equivalent to a 4.5% solution) • B. Injected directly into the tumor (60 μl of a 0.1% melatonin solution) • C. Injected directly into the tumor (60 μl of a 4.5% melatonin solution) • D. Injected directly into the tumor (60 μl of a 0.1% melatonin solution) until the complete disappearance of the tumor (28 days). • E. Photographs of the tumor were taken at the end of the treatment of each of the groups. […]

CAL-27 tumor cells = assay: GPx and GRd antioxidant enzyme activity in tumor cells; assay type: cell-based
From the text: The relationship between the mitochondrial changes caused by melatonin and the cell death induced by this molecule in these tumor cells was studied. Melatonin increases the number of mitochondria as well as the number of cristae, DNA, and mitochondrial mass. The result is an increase in respiratory chain complexes, and accordingly an increase in oxygen consumption, which is related to an increase in free radicals and oxidative stress reflected by an increase in the GSSG/GSH ratio. However, the antioxidant capacity is not modified. The activity and the expression of antioxidant enzymes such as GPx and the GRd is not modified either.

tumor cells (CAL-27) = assay: Cell death, apoptosis and proliferation of tumor cells in vitro; assay type: cell-based
From the text: To carry out the assays, CAL-27 and SCC9 cells have been used as typical example of head and neck squamous cell carcinoma (HNSCC) cancer cells. […] The relationship between the mitochondrial changes caused by melatonin and the cell death induced by this molecule in these tumor cells has been studied. Melatonin increases mitochondrial mass, mitochondrial DNA, the number of mitochondria, as well as the number of mitochondrial cristae. The result is an increase in respiratory chain complexes, and accordingly an increase in oxygen consumption, which is related to an increase in free radicals and oxidative stress. […] In other words, the cytotoxic effects of melatonin in the tumor cells are related to an increase in mitochondrial function, and the increase in mitochondrial function in the tumor cell in turn induces apoptosis processes, which also entails the inhibition of protein synthesis.

tumor cells [2] = assay: Mitochondrial changes, oxygen consumption and free radicals in tumor cells; assay type: cell-based
From the text: The relationship between the mitochondrial changes caused by melatonin and the cell death induced by this molecule in these tumor cells was studied. Melatonin increases the number of mitochondria as well as the number of cristae, DNA, and mitochondrial mass. The result is an increase in respiratory chain complexes, and accordingly an increase in oxygen consumption, which is related to an increase in free radicals and oxidative stress reflected by an increase in the GSSG/GSH ratio. However, the antioxidant capacity is not modified. The activity and the expression of antioxidant enzymes such as GPx and the GRd is not modified either. […] In other words, mitochondrial activity increases, and accordingly free radicals which induce cell death also increase. To carry out the assays, CAL-27 and SCC9 cells have been used as typical example of head and neck squamous cell carcinoma (HNSCC) cancer cells.

[3] = athymic nude (nu/nu), mouse, in vivo
Experimental: as §1, §2
The experimental groups were as follows: • 1. […]
The concentration of melatonin in the tumors was measured after sacrificing the animals after 21 days. When it is injected directly into the tumor, the concentration of melatonin cannot be measured due to the limited amount of sample taking into account that the tumor practically disappears.

tumor cells [4] = assay: Melatonin penetration in tumor cells in vitro; assay type: cell-based; details: cells incubated with 1500 μM melatonin for 24 hours
Experimental: To carry out the assays, CAL-27 and SCC9 cells have been used as typical example of head and neck squamous cell carcinoma (HNSCC) cancer cells.
In the in-vitro experiments, the tumor cells were incubated with different concentrations of melatonin. It was observed that melatonin readily enters the tumor cells, reaching levels of 450 ng/mg of proteins after incubating the cells with melatonin at a dose of 1500 μM for 24 hours (FIG. 1).

With `COc1ccc2[nH]cc(CCNC(C)=O)c2c1` [melatonin, N-acetyl-5-methoxytryptamine] the “mitochondrial oxygen consumption and production of free radicals” value (SCC-9 cells; SCC-9 cells, compared with CAL-27) was “less production of reactive oxygen species; also recorded: much lower”, the “sensitivity of cells to melatonin” value (SCC-9 cells; SCC-9 head and neck cancer cells) was “more resistant” and the tumor volume ([1]; 21 days after treatment) was “decreases drastically; also recorded: disappearing almost completely; also recorded: the decrease in tumor volume is so drastic that the tumor can hardly be observed”. The tumor volume ([1]; 28 days after treatment) was “completely disappears; also recorded: disappears completely; also recorded: virtually disappeared”, the “necrotic areas in tumors (NMR images)” value ([1]; s.c. administered melatonin) was “certain necrotic areas are observed” and the “tumor volume with respect to the control” value ([1]; subcutaneous (systemic route), 300 mg/kg, 21 days) was “decreases very little; also recorded: the decrease in tumor volume is much lower; also recorded: the tumor volume decreases, although the effect is not very significant”. For the same compound, the SOD (CAL-27 tumor cells) was “slight increase”, the antioxidant capacity (CAL-27 tumor cells) was “not modified” and the “GPx and GRd antioxidant enzyme activity” value (CAL-27 tumor cells; CAL-27 tumor cells) was “not modified; also recorded: does not increase”. The cell cycle (tumor cells (CAL-27)) was “stopping of cell cycle in the S and G2 phases”, the cell proliferation (tumor cells (CAL-27)) was “Inhibition” and the “size and number of colonies of tumor cells” value (tumor cells (CAL-27); CAL-27 irradiated and treated with melatonin) was “significant decrease”. The “minimum effective dose (in vitro) for inducing 80% cell death” value (tumor cells (CAL-27); in vitro) was 0.1%, the apoptosis (tumor cells (CAL-27); tumor cells, high concentrations) was “increases apoptosis in a dose and time dependent manner” and the ATP production (tumor cells [2]) was “does not increase”. The “GSSG/GSH ratio (oxidative stress)” value (tumor cells [2]) was “increase”, the free radicals (tumor cells [2]) was “increase” and the “intermediate products of the Krebs cycle (metabolomics)” value (tumor cells [2]) was “increase”. For the same compound, the “mitochondrial DNA” value (tumor cells [2]) was “increases”, the mitochondrial mass (tumor cells [2]) was “increases” and the “number of mitochondria and number of cristae” value (tumor cells [2]) was “increases”. The oxygen consumption (tumor cells [2]) was “increase”, the “concentration of melatonin reached in the tumor” value [3] was 450 ng/mg of proteins and the “melatonin levels in tumor cells” value (tumor cells [4]) was 450 ng/mg of proteins.
